From patent US20110077239A1, “GLYCINE RECEPTOR AGONISTS FOR THE TREATMENT OF PHANTOM PHENOMENA” (priority 2007, published 2011)

Columns and labels:
[1] = system: auditory nerve; experiment: Measurements of compound action potentials (CAP) of the auditory nerve after local administration; type: in vivo, rat
Source text: In the experiments adult female Wistar rats (Charles River, Sulzfeld, Germany) in the age of 2 to 4 months were used.
To get an access to the inner ear (cochlea) the middle ear is opened by surgery: A small opening behind the ear drum enables the access to the round window of the cochlea, in the massive bone of the bony labyrinth this is the only non-traumatic access to the inner ear. A silver wire electrode having a surface melted silver pearl is carefully positioned through the opening on the membrane of the round window, secured with tissue glue and the opening is closed with dental cement. The silver wire is conducted in the neck of the animal through the skin towards the outside and can then directly be connected to the electrophysiology amplifier for the measurements. The direct electrical access through the CAP electrode enables the direct largely interference-free down lead of the compound potentials of the auditory nerves resulting from an acoustic stimulation. In the signal response, besides the compound action potentials of the auditory nerves (CAP), also the formation of the excitation in the outer hair sense cells (OHC) can be detected as cochlea microphone potentials (CM). These three potentials in the measurements in vivo provide information on: 1) the activity of the auditory nerve close to the threshold up to high levels of acoustic pressure and, therefore, also on the modulation of the transmission, which is mediated by a glycinergic efferent feedback to the afferences of the IHCs, 2) the integrity of the IHCs (via the course of the SPs at increasing levels of acoustic pressures), 3) the amplification by the OHC (through the phase synchronicity of the CM signals with the auditory stimulus).
For this purpose the compound action potentials were activated by different sound stimuli (broadband click stimuli, pure sounds having frequencies of between 4 and 32 kHz, and degrees of loudness from 0 to 100 dB SPL).

[2] = system: inner ear; conditions: chronic local administration to the inner ear of guinea pigs; high frequencies; cited from earlier work

| SMILES | amplitude of the CAP signals two days after local administration ([1]; 2 days after LA, high and low degrees of loudness, in relation to the untreated condition) | CAP amplitudes at high degrees of loudness after local administration ([1]; local administration at round window niche, taurine 5 μl of a 50 mM solution, strychnine 5 μl of a 10 mM solution, high degrees of loudness) | CAP amplitudes at low to medium degrees of loudness after local administration ([1]; local administration at round window niche, taurine 5 μl of a 50 mM solution, low to medium degrees of loudness) | amplitude of the CAP signal within 1-3 hours after local administration ([1]; within 1-3 hours after local administration, measurements at 8 kHz, FIG. 7) | efferent activity and threshold shift after acoustic trauma [2] |
| --- | --- | --- | --- | --- | --- |
| NCCS(=O)(=O)O [taurine] | still reduced | overlapping of the CAP amplitude function | increase slower | reduction of the amplitude of the CAP signals | – |
| O=C1C[C@@H]2OCC=C3CN4CC[C@]56c7ccccc7N1[C@H]5[C@H]2[C@H]3C[C@H]46 [strychnine] | – | – | – | – | disrupts efferent activity and results in a permanent threshold shift |
